These results are taken from patent US7030141B2, “Inhibitors of factor Xa and other serine proteases involved in the coagulation cascade” (priority 2001, dated 2006).

The labels stand for the following.
B1: Antistasin: "a potent inhibitor of blood coagulation factor Xa from the Mexican leech, Haementeria officinalis" (protein, UniProt P15358 18-136, looked up)
Antistasin: QGPFGPGCEEAGCPEGSACNIITDRCTCSGVRCRMHCPHGFQRSRYGCEFCKCRLEPMKATCDISECPEGMMCSRLTNKCDCKIDINCRKTCPNGLKRDKLGCEYCECRPKRKLIPRLS

T1 sequence (P00742 235-488 limits assumed): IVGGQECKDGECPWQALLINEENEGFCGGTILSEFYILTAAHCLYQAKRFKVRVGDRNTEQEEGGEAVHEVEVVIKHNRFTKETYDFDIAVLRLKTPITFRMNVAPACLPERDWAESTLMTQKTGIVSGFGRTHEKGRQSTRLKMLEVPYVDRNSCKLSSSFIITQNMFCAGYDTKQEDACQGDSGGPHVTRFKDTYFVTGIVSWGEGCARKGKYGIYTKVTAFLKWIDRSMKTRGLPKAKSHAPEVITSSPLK
T1 sequence (P00742 41-179 partner limits assumed): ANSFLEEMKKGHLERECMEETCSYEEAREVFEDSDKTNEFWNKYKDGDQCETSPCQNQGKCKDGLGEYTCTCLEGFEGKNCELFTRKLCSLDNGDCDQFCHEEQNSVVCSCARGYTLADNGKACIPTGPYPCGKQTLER

The subject of the first experiment is clot lysis / acute reocclusion.
Test: not given
Particulars: dog; cited from earlier work.
“rTAP: "recombinant tick anticoagulant peptide (rTAP)", one of the "protein or polypeptide factor Xa inhibitors" (YNRLCIKPRDWIDECDSNEGGERAYFRNGKGGCDSFWICPEDHTGADYYSSYRDCFNACI; UniProt P17726 1-60, looked up)”: the acute reocclusion entry was “prevent acute reocclusion” and the “recombinant tissue plasminogen activator mediated clot lysis” value was “accelerate the recombinant tissue plasminogen activator mediated clot lysis”.

A further experiment relates to thrombus formation.
Test: not given
Particulars: rat arteriovenous shunt and venous stasis models; cited from earlier work.
Consider `CC(=N)N1CC[C@H](Oc2ccc([C@H](Cc3ccc4ccc(C(=N)N)cc4c3)C(=O)O)cc2)C1` [DX9065a], for which the “inhibition of thrombus formation” value is “inhibition of thrombus formation was achieved at doses that had little effect on APTT”.

Another experiment concerns the target T1, human factor Xa (Homo sapiens, UniProt P00742).
T1 construct: purchased Enzyme Research Laboratories
The experiment is described as follows: Determination of Factor Xa IC50 (cleavage of chromogenic substrate S2765). Particulars: 3 pM factor Xa; compound at 1 uM. In kind it is biochemical. Here is the method:
A. Determination of Factor Xa IC50
These concentrations were achieved by diluting a 21.087 μM stock solution of factor Xa in the appropriate amount of a buffer comprising 10 […], 0.1% BSA, pH 7.4 (HBSA buffer). Accordingly, 5 μL of the compound to be tested in DMSO (2% final) is added to the factor Xa/buffer solution and incubated for 60 minutes at room temperature.
The IC50 is determined by monitoring the increase in […] at 390 nm exicitation, 460 nm emission, with a 455 nm cutoff, in a fluorometric plate reader.
With `N#Cc1ccc(NC(=O)C2CCCN2C(=O)Nc2ccc(Cl)cc2)cc1` (stereo not drawn), the “Fxa 3 PM % Inhibition at 1 uM” value was 16.58%.

As for `O=C(Nc1ccc(-c2nnn[nH]2)cc1)C1CCCN1C(=O)Nc1ccc(Cl)cc1` (stereo not drawn), the “Fxa 3 PM % Inhibition at 1 uM” value is on record as 36.64%.

`NS(=O)(=O)c1ccccc1-c1ccc(NC(=O)[C@@H]2CCCN2C(=O)Nc2ccc(Cl)cc2)c(F)c1`: the “Fxa 3 PM % Inhibition at 1 uM” value was found to be 46.5%.

Still in this experiment, the particulars now being: 3 pM factor Xa; compound at 4 uM.
Take `NS(=O)(=O)c1ccccc1-c1ccc(NC(=O)C2CCCN2C(=O)Nc2ccccc2F)c(F)c1` (stereo not drawn): the “Fxa 3 PM % Inhibition at 4 uM” value worked out at 37.21%.

Regarding `CC(=O)c1cccc(NC(=O)N2CCCC2C(=O)Nc2ccc(-c3ccccc3S(N)(=O)=O)cc2F)c1` (stereo not drawn), the “Fxa 3 PM % Inhibition at 4 uM” value worked out at 21.04%.

On to `NS(=O)(=O)c1ccccc1-c1ccc(NC(=O)C2CCCN2C(=O)Nc2ccc(F)c(Cl)c2)c(F)c1` (stereo not drawn), for which the “Fxa 3 PM % Inhibition at 4 uM” value was determined as 41.07%.

Consider `NS(=O)(=O)c1ccccc1-c1ccc(NC(=O)C2CCCN2C(=O)Nc2cccc(Cl)c2)c(F)c1` (stereo not drawn), for which the “Fxa 3 PM % Inhibition at 4 uM” value was 55.97%.

As to `NS(=O)(=O)c1ccccc1-c1ccc(NC(=O)C2CCCN2C(=O)Nc2ccc(Cl)c(Cl)c2)c(F)c1` (stereo not drawn), the “Fxa 3 PM % Inhibition at 4 uM” value was 41.71%.

For `Cc1cc(Cl)ccc1NC(=O)N1CCCC1C(=O)Nc1ccc(-c2ccccc2S(N)(=O)=O)cc1F` (stereo not drawn), the “Fxa 3 PM % Inhibition at 4 uM” value amounted to 38.88%.

With `N#Cc1ccc(NC(=O)N2CCCC2C(=O)Nc2ccc(-c3ccccc3S(N)(=O)=O)cc2F)cc1` (stereo not drawn), the “Fxa 3 PM % Inhibition at 4 uM” value is on record as 51.86%.

In the case of `CN(C)c1ccc(NC(=O)N2CCCC2C(=O)Nc2ccc(-c3ccccc3S(N)(=O)=O)cc2F)cc1` (stereo not drawn), the “Fxa 3 PM % Inhibition at 4 uM” value amounted to 19.93%.

`CCc1ccc(NC(=O)N2CCCC2C(=O)Nc2ccc(-c3ccccc3S(N)(=O)=O)cc2F)cc1` (stereo not drawn): the “Fxa 3 PM % Inhibition at 4 uM” value is reported as 38.14%.

In the case of `Cc1ccc(Cl)cc1NC(=O)N1CCCC1C(=O)Nc1ccc(-c2ccccc2S(N)(=O)=O)cc1F` (stereo not drawn), the “Fxa 3 PM % Inhibition at 4 uM” value came out at 19.84%.

On to `CC(C)c1ccc(NC(=O)N2CCCC2C(=O)Nc2ccc(-c3ccccc3S(N)(=O)=O)cc2F)cc1` (stereo not drawn), for which the “Fxa 3 PM % Inhibition at 4 uM” value came out at 19.22%.

Consider `COc1cccc(NC(=O)N2CCCC2C(=O)Nc2ccc(-c3ccccc3S(N)(=O)=O)cc2F)c1` (stereo not drawn), for which the “Fxa 3 PM % Inhibition at 4 uM” value is listed as 36.21%.

In the case of `NS(=O)(=O)c1ccccc1-c1ccc(NC(=O)C2CCCN2C(=O)Nc2ccc(C(F)(F)F)cc2)c(F)c1` (stereo not drawn), the “Fxa 3 PM % Inhibition at 4 uM” value was determined as 25.1%.

In the case of `NS(=O)(=O)c1ccccc1-c1ccc(NC(=O)C2CCCN2C(=O)Nc2cccc(C(F)(F)F)c2)c(F)c1` (stereo not drawn), the “Fxa 3 PM % Inhibition at 4 uM” value came to 21.61%.

Staying with this experiment, now noted: 1 h, read-out: % at 1 uM (printed in column FXA 30 pM IC50); 30 pM factor Xa; compound at 1 uM.
With `O=C(Nc1ccc(-c2cncnc2)cc1)[C@H]1C[C@@H](O)CN1C(=O)Nc1ccc(Cl)cc1`, the inhibition at 1 µM worked out at 32%.

As to `O=C(Nc1ccc(NC(=O)[C@H]2C[C@@H](O)CN2C(=O)Nc2ccc(Cl)cc2)cc1)C1CCCC1`, the inhibition at 1 µM was determined as 36%.

For the molecule `O=C(Nc1ccc(-n2ccnn2)cc1)[C@H]1C[C@@H](O)CN1C(=O)Nc1ccc(Cl)cc1`, the inhibition at 1 µM was 26%.

As for `CO[C@@H]1C[C@H](C(=O)Nc2ccc(N3CCC3=O)cc2F)N(C(=O)Nc2ccc(Cl)cn2)C1`, the inhibition at 1 µM was found to be 54%.

A further experiment relates to arterial thrombosis.
Test: not given
To be noted: canine coronary artery electrolytic lesion model; cited from earlier work.
Regarding “rTAP: "recombinant tick anticoagulant peptide (rTAP)", one of the "protein or polypeptide factor Xa inhibitors" (YNRLCIKPRDWIDECDSNEGGERAYFRNGKGGCDSFWICPEDHTGADYYSSYRDCFNACI; UniProt P17726 1-60, looked up)”, the “thrombus mass and time to occlusion” value is “reduce thrombus mass and time to occlusion”.

Another experiment deals with arterial and venous thrombosis.
Test: not given
Particulars: various models of arterial and venous thrombosis; cited from earlier work.
Consider B1, for which the antithrombotic activity result was “displays antithrombotic activity”.

The next experiment deals with venous thrombosis.
Test: not given
To be noted: rabbit model of venous thrombosis; cited from earlier work.
Take “rTAP: "recombinant tick anticoagulant peptide (rTAP)", one of the "protein or polypeptide factor Xa inhibitors" (YNRLCIKPRDWIDECDSNEGGERAYFRNGKGGCDSFWICPEDHTGADYYSSYRDCFNACI; UniProt P17726 1-60, looked up)”: the fibrin deposition result is given as “reduce fibrin deposition”.
